From paper PMC12350162, “Electron flow in hydrogenotrophic methanogens under nickel limitation” (Nature, 2025)

Experiments:
[1] = biological target: T1, Elp–Hdr complex, HdrA site (bifurcating FAD) (Methanothermobacter marburgensis, UniProt Q50756); assay: cryo-EM structure; type: binding; details: electron-bifurcating FAD site of HdrA; co-purified native cofactor
T1 construct: with H(2):CoB-CoM heterodisulfide,ferredoxin reductase subunit B; H(2):CoB-CoM heterodisulfide,ferredoxin reductase subunit C; F420-dependent electron-donating protein A (truncated formate dehydrogenase alpha subunit FdhA homologue); F420-dependent electron-donating protein B (formate dehydrogenase beta subunit FdhB homologue); F420-dependent electron-donating protein C (MvhD homologue)
T1 sequence (Q50756 2-659): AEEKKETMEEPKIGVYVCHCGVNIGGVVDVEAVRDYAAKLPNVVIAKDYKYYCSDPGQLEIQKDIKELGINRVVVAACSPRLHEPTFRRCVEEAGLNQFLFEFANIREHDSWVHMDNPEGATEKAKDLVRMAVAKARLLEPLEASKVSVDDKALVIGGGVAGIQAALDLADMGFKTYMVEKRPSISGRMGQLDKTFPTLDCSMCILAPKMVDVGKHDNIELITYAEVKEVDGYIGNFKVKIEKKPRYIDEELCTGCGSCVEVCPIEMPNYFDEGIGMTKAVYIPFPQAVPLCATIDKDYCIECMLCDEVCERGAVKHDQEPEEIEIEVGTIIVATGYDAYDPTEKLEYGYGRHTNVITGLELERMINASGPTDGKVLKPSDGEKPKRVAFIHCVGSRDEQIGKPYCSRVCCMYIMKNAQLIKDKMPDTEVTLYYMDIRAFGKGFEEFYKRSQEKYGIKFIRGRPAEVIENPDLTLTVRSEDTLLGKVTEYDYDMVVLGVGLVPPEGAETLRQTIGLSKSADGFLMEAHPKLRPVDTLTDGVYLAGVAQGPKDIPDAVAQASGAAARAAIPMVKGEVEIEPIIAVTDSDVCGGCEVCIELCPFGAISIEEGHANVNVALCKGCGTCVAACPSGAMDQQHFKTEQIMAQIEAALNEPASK
T1 sequence (Q50755 whole entry partner, the tested form may be a part): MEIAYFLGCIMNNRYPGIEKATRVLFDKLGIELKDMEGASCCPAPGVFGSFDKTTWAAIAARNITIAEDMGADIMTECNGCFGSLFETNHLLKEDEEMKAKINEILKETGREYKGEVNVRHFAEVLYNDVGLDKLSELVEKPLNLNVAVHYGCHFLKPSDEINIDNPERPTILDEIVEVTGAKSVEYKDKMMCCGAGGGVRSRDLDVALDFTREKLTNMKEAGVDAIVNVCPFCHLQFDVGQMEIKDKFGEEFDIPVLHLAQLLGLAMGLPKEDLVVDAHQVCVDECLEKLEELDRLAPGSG
T1 sequence (Q50754 2-185 partner): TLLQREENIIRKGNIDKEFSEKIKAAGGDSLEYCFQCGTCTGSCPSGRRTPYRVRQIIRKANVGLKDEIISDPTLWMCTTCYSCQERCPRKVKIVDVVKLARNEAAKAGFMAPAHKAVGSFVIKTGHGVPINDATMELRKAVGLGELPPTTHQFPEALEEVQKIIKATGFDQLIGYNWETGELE
T1 sequence (D9PY04 1-342 partner): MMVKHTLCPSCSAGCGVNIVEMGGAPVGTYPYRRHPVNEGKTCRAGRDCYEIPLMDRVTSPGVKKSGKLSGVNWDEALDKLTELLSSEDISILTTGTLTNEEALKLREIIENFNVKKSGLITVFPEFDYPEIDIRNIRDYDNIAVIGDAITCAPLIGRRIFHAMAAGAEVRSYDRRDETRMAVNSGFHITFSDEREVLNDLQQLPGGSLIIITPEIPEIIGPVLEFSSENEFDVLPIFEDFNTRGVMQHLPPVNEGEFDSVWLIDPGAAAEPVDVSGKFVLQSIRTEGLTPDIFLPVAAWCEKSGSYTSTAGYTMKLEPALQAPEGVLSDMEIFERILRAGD
T1 sequence (D9PY03 1-380 partner): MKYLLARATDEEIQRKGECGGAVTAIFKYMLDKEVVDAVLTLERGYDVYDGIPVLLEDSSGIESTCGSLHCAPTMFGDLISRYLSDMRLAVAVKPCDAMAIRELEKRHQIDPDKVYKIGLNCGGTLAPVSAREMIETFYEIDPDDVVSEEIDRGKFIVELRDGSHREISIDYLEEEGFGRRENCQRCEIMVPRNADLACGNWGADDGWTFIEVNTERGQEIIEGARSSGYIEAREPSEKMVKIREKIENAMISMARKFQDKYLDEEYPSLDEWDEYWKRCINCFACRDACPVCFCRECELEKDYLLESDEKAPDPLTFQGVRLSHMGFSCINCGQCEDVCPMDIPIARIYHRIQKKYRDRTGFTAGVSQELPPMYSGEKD
T1 sequence (D9PY02 1-136 partner): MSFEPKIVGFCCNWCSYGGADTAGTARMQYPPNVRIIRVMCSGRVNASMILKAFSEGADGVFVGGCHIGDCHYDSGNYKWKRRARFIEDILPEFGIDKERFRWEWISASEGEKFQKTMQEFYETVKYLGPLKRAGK

[2] = biological target: T2, Elp–Hdr complex (ElpABC–HdrABC)2, ElpB site (Methanothermobacter marburgensis, UniProt D9PY03); assay: cryo-EM structure; details: FAD-binding site of ElpB; co-purified native cofactor; states 1 and 2
T2 construct: gene fdhB; with F420-dependent electron-donating protein A (truncated formate dehydrogenase alpha subunit FdhA homologue); F420-dependent electron-donating protein C (MvhD homologue); H(2):CoB-CoM heterodisulfide,ferredoxin reductase subunit A; H(2):CoB-CoM heterodisulfide,ferredoxin reductase subunit B; H(2):CoB-CoM heterodisulfide,ferredoxin reductase subunit C
T2 sequence (D9PY03 1-380): as the sequence (D9PY03 1-380 partner) above
T2 sequence (D9PY04 1-342 partner): as the sequence (D9PY04 1-342 partner) above
T2 sequence (D9PY02 1-136 partner): as the sequence (D9PY02 1-136 partner) above
T2 sequence (Q50756 2-659 partner): as the sequence (Q50756 2-659) above
T2 sequence (Q50755 whole entry partner, the tested form may be a part): as the sequence (Q50755 whole entry partner, the tested form may be a part) above
T2 sequence (Q50754 2-185 partner): as the sequence (Q50754 2-185 partner) above

Q: For `Cc1cc2nc3c(=O)[nH]c(=O)nc-3n(C[C@H](O)[C@H](O)[C@H](O)COP(=O)(O)OP(=O)(O)OC[C@H]3O[C@@H](n4cnc5c(N)ncnc54)[C@H](O)[C@@H]3O)c2cc1C` [FAD], which cryo-EM structure [1] is on record?
A: Cofactors including the electron-bifurcating FAD of HdrA

Q: What about the cryo-EM structure [2] of the same compound?
A: the positions of FAD and the four [4Fe–4S] clusters are conserved
